The text below walks through data of ChEMBL document CHEMBL5223069, “Design, synthesis and biological evaluation of vortioxetine derivatives as new COX-1/2 inhibitors in human monocytes” (Bioorg Med Chem, 2020).

pIC50: −log10 of the molar value. Activity calls are given as the source filed them. No cut-off for these calls is given here.

Data set [1] concerns Monocyte. The data set is described as follows: Induction of superoxide anion production in human monocytes assessed as increase in reduced cytochrome C level at 0.0025 to 1 uM incubated for 1 hr. Type of data set: functional, cell-based. The following applies: dose 0.0025-1 µM.
The subject of data set [2] is Monocyte. Kind of data set: Cytotoxicity against human monocytes assessed as reduction in cell viability at 0.01 to 10 uM incubated for 1 to 6 hrs by MTT assay. Type of data set: toxicity, cell-based. Conditions: dose lower 0.01 µM, time lower 1 hrs, dose upper 10 µM, time upper 6 hrs. (In general: Tetrazolium dyes change colour on reduction, which living cells bring about.)

The subject of data set [3] is Monocyte. Kind of data set: Induction of IL-6 mRNA expression in human monocytes at 1 uM incubated for 1 hr by RT-PCR analysis. It counts as functional, cell-based.
For data set [4], the system named is Monocyte. The data set is described as follows: Modulation of LPS-induced IL-6 mRNA expression in human monocytes at 1 uM preincubated for 1 hr followed by LPS stimulation and measured after 30 mins by RT-PCR analysis. Type of data set: functional, cell-based. Conditions: time 1.5 hrs.
For data set [5], the system named is Monocyte. Kind of data set: Induction of TNF-alpha mRNA expression in human monocytes at 1 uM incubated for 1 hr by RT-PCR analysis. It counts as functional, cell-based.
Data set [6] deals with Monocyte. Kind of data set: Modulation of LPS-induced IL-1beta mRNA expression in human monocytes at 1 uM preincubated for 1 hr followed by LPS stimulation and measured after 30 mins by RT-PCR analysis. Type of data set: functional, cell-based. Conditions: time 1.5 hrs.
In data set [7] the test system is Monocyte. The data set is described as follows: Modulation of LPS-induced IL-10 mRNA expression in human monocytes at 1 uM preincubated for 1 hr followed by LPS stimulation and measured after 30 mins by RT-PCR analysis. It counts as functional, cell-based. The following applies: time 1.5 hrs.
Data set [8] deals with Monocyte. The data set is described as follows: Induction of IL-10 mRNA expression in human monocytes at 1 uM incubated for 1 hr by RT-PCR analysis. Type of data set: functional, cell-based.
In data set [9] the test system is Monocyte. The data set is described as follows: Modulation of LPS-induced TNF-alpha mRNA expression in human monocytes at 1 uM preincubated for 1 hr followed by LPS stimulation and measured after 30 mins by RT-PCR analysis. It counts as functional, cell-based. Conditions: time 1.5 hrs.
In data set [10] the target is T1, Prostaglandin G/H synthase 2 (Homo sapiens) (UniProt P35354).
T1 sequence (whole entry): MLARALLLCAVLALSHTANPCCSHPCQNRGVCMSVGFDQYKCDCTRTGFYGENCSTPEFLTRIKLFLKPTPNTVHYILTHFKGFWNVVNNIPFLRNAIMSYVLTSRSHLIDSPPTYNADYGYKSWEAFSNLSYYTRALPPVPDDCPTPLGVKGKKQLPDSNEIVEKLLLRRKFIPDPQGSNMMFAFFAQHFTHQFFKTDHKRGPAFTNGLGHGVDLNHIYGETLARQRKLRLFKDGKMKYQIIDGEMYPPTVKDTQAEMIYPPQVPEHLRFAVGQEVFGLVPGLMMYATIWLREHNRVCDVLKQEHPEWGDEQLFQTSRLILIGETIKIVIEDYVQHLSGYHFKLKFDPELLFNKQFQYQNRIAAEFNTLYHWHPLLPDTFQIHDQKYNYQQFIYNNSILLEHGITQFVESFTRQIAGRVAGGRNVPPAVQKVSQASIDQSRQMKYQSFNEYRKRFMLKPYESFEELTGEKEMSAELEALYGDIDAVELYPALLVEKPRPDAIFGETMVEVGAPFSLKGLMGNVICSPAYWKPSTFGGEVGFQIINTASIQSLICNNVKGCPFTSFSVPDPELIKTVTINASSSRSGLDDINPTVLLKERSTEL
The following applies: dose 0.1-50 nM.
Description: Inhibition of human COX-2 at 0.1 to 50 nM by spectrophotometer analysis

Data set [11] relates to Monocyte. Kind of data set: Induction of IL-1beta mRNA expression in human monocytes at 1 uM incubated for 1 hr by RT-PCR analysis. Type of data set: functional, cell-based.
For data set [12], the system named is Monocyte. Kind of data set: Modulation of LPS-induced TNF-alpha mRNA expression in human monocytes at 7.5 nM preincubated for 1 hr followed by LPS stimulation and measured after 30 mins by RT-PCR analysis. It counts as functional, cell-based. The following applies: time 1.5 hrs.
The test system of data set [13] is Monocyte. The data set is described as follows: Modulation of COX-1 mRNA expression in human monocytes at 7.5 nM incubated for 1 hr by RT-PCR analysis. It counts as functional, cell-based.
The test system of data set [14] is Monocyte. The data set is described as follows: Inhibition of PMA-induced oxidative burst in human monocytes at 0.1 to 50 nM preincubated for 1 hr followed by PMA stimulation and measured after 30 mins relative to control. Type of data set: functional. The following applies: dose 0.1-50 nM, time 1.5 hrs.
The subject of data set [15] is Monocyte. The data set is described as follows: Induction of IL-10 mRNA expression in human monocytes at 7.5 nM incubated for 1 hr by RT-PCR analysis. Type of data set: functional, cell-based.
Data set [16] relates to Monocyte. The data set is described as follows: Inhibition of PMA-induced oxidative burst in human monocytes preincubated for 1 hr followed by PMA stimulation and measured after 30 mins. Type of data set: functional, cell-based.
For data set [17], the target named is Prostaglandin G/H synthase 1 (Homo sapiens) (UniProt P23219). Kind of data set: Inhibition of human COX-1 at 0.1 to 50 nM by spectrophotometer analysis. Conditions: dose 0.1-50 nM.
Sequence of Prostaglandin G/H synthase 1 (Homo sapiens) (P23219 whole entry): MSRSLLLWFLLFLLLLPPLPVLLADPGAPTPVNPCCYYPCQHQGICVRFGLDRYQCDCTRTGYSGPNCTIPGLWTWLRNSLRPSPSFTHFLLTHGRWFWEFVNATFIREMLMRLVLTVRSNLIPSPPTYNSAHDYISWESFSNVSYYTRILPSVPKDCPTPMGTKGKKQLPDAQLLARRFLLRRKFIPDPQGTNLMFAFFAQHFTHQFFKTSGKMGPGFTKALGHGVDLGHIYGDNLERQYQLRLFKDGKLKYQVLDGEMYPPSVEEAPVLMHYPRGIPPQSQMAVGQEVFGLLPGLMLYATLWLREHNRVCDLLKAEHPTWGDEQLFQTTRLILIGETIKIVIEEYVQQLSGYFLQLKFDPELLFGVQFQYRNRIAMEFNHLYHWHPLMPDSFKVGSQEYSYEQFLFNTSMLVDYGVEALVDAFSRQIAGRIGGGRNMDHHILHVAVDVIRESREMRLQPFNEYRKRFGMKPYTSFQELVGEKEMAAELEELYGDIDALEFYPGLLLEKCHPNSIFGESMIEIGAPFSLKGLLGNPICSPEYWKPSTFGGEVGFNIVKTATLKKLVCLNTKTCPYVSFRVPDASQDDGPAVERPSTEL
In data set [18] the test system is Monocyte. Kind of data set: Modulation of LPS-induced IL-6 mRNA expression in human monocytes at 7.5 nM preincubated for 1 hr followed by LPS stimulation and measured after 30 mins by RT-PCR analysis. It counts as functional, cell-based. The following applies: time 1.5 hrs.
In data set [19] the test system is Monocyte. The data set is described as follows: Modulation of LPS-induced IL-10 mRNA expression in human monocytes at 7.5 nM preincubated for 1 hr followed by LPS stimulation and measured after 30 mins by RT-PCR analysis. Type of data set: functional, cell-based. Conditions: time 1.5 hrs.
The subject of data set [20] is Monocyte. The data set is described as follows: Induction of TNF-alpha mRNA expression in human monocytes at 7.5 nM incubated for 1 hr by RT-PCR analysis. It counts as functional, cell-based.
The subject of data set [21] is Monocyte. Kind of data set: Modulation of LPS-induced IL-1beta mRNA expression in human monocytes at 7.5 nM preincubated for 1 hr followed by LPS stimulation and measured after 30 mins by RT-PCR analysis. Type of data set: functional, cell-based. Conditions: time 1.5 hrs.
Data set [22] has as its system Monocyte. The data set is described as follows: Induction of IL-6 mRNA expression in human monocytes at 7.5 nM incubated for 1 hr by RT-PCR analysis. Type of data set: functional, cell-based.
Data set [23] has as its system Monocyte. The data set is described as follows: Induction of IL-1beta mRNA expression in human monocytes at 7.5 nM incubated for 1 hr by RT-PCR analysis. Type of data set: functional, cell-based.
For data set [24], the system named is Monocyte. The data set is described as follows: Downregulation of PMA-induced TNF-alpha mRNA expression in human monocytes at 7.5 nM preincubated for 1 hr followed by PMA stimulation and measured after 30 mins by RT-PCR analysis. Conditions: time 1.5 hrs. Type of data set: functional, cell-based.
The test system of data set [25] is Monocyte. The data set is described as follows: Inhibition of PMA-induced IL-1beta mRNA expression in human monocytes at 7.5 nM preincubated for 1 hr followed by PMA stimulation and measured after 30 mins by RT-PCR analysis. The following applies: time 1.5 hrs. It counts as functional, cell-based.
In data set [26] the test system is Monocyte. The data set is described as follows: Inhibition of PMA-induced COX-2 expression in human monocytes at 7.5 nM preincubated for 1 hr followed by PMA stimulation and measured after 30 mins by RT-PCR analysis. Conditions: time 1.5 hrs. It counts as functional, cell-based.
Data set [27] concerns Monocyte. The data set is described as follows: Downregulation of PMA-induced IL-6 mRNA expression in human monocytes at 7.5 nM preincubated for 1 hr followed by PMA stimulation and measured after 30 mins by RT-PCR analysis. The following applies: time 1.5 hrs. It counts as functional, cell-based.

With `Cc1ccc(S(=O)(=O)N2CCN(c3ccccc3Sc3ccc(C)cc3C)CC2)cc1`, the result in data set [1] was inactive. Also, the Activity entry in data set [2] is reported as “Non-Toxic”.
As to `Cc1ccc(Sc2ccccc2N2CCN(Cc3ccc(Cl)cc3)CC2)c(C)c1`, in data set [1], the outcome was inactive. Further, the Activity entry in data set [2] is listed as “Non-Toxic”.
Consider `CS(=O)(=O)c1ccc(C2=C(c3ccccc3)C(=O)OC2)cc1`, for which the outcome in data set [3], in [4], in data set [5], in data set [6], in data set [7] and in data set [8] was inactive. In addition, the result in data set [9] and in data set [11] was inactive. For the same compound, the inhibition result in [10] is “Active”.
By pIC50 is commonly meant −log10 of the IC50, conventionally taken in molar units. Read a low pIC50 as a large IC50. As for `Cc1ccc(Sc2ccccc2N2CCN(CC(=O)O)CC2)c(C)c1`, the outcome in data set [12], in data set [13], in data set [1], in data set [18], in data set [19] and in data set [20] was inactive. Further, the result in [21], in data set [22] and in data set [23] was inactive. Further, the “inhibition (INH)” value in data set [14] came to 90%. Moreover, the result in [15] was Active. This compound also gave a pIC50 in data set [16] of 9.46. Further, the inhibition entry in data set [17] is “Active”. For the same compound, the Activity result in data set [2] is “Non-Toxic”.
For `Cc1ccc(Sc2ccccc2N2CCN(Cc3ccccc3C(F)(F)F)CC2)c(C)c1`, the outcome in [12], in data set [13], in [1], in [15], in data set [18] and in data set [19] was inactive. In addition, the outcome in data set [20], in [21], in data set [22] and in data set [23] was inactive. Also, the “inhibition (INH)” value in data set [14] came to 80%. In addition, in [16], the pIC50 is 8.20. Besides, the inhibition result in data set [17] was “Active”. For the same compound, the Activity entry in [2] is given as “Non-Toxic”.
As to `Cc1ccc(Sc2ccccc2N2CCN(CCO)CC2)c(C)c1`, in data set [1], the outcome was inactive. Besides, the Activity entry in data set [2] is reported as “Non-Toxic”.
Regarding `COc1ccc2c(c1)c(CC(=O)O)c(C)n2C(=O)c1ccc(Cl)cc1`, the result in data set [3], in data set [4], in data set [5], in data set [6], in data set [7] and in [8] was inactive. The outcome in data set [9] and in [11] was inactive.
As for `CCN1CCN(c2ccccc2Sc2ccc(C)cc2C)CC1`, in data set [1], the outcome was inactive. Also, the Activity entry in data set [2] is given as “Non-Toxic”.
With `Cc1ccc(Sc2ccccc2N2CCN(CC3CCCC3)CC2)c(C)c1`, the outcome in [12], in data set [13], in data set [1], in data set [15], in data set [18] and in [19] was inactive. Besides, the result in [20], in data set [21], in data set [22] and in [23] was inactive. Further, in [14], the “inhibition (INH)” value worked out at 70%. This compound also had a pIC50 in data set [16] of 8.57. The inhibition result in [17] and in data set [10] was “Active” in each case. Further, the Activity result in data set [2] was “Non-Toxic”.
For `Cc1ccc(Sc2ccccc2N2CCN(S(C)(=O)=O)CC2)c(C)c1`, the result in data set [1] was inactive. Also, in data set [2], the Activity result is given as “Non-Toxic”.
Consider `CC(=O)N1CCN(c2ccccc2Sc2ccc(C)cc2C)CC1`, for which, in [1], the result was inactive. Also, the Activity result in data set [2] is listed as “Non-Toxic”.
For the compound `Cc1ccc(Sc2ccccc2N2CCNCC2)c(C)c1` [VORTIOXETINE], the outcome in data set [24] was Active. Besides, the result in data set [12], in data set [13], in data set [1], in [15], in [18] and in data set [19] was inactive. Besides, the outcome in data set [20], in data set [21], in data set [22] and in data set [23] was inactive. Also, in data set [14], the “inhibition (INH)” value turned out to be 90%. In addition, in [25], the inhibition result is “Active”. The same compound had a pIC50 in [16] of 8.54. Besides, the Activity result in [2] is given as “Non-Toxic”.
As for `Cc1ccc(Sc2ccccc2N2CCN(Cc3ccccc3F)CC2)c(C)c1`, the result in data set [12], in data set [13], in data set [1], in [15], in data set [18] and in data set [20] was inactive. Further, the result in data set [21], in data set [22] and in data set [23] was inactive. Further, the “inhibition (INH)” value in data set [14] is 70%. The compound further showed a pIC50 in data set [16] of 8.19. For the same compound, the inhibition result in [26], in [17] and in data set [10] was “Active” in each case. The result in data set [27] and in data set [19] was Active. For the same compound, the Activity result in [2] is on record as “Non-Toxic”.
